In PubChem BioAssay (NCI):
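Step 1: Grow cells in 96-well plates. Step 2: Expose to compound for 48 hours at 5 concentrations. Step 3: Interpolate endpoints linearly; if unreached, use highest concentration. TGI: concentration producing complete growth inhibition.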 Where a SMILES comes first, the peptide text is derived from it. [ ]: non-standard residue; d: D form. pGlu = O=C1CC[CH](C(=O)O)N1

Tests used:
Assay in all cases: NCI tumour cell line growth inhibition, 48 h
786-0 renal = system: 786-0 renal
KM12 colon = system: KM12 colon
MDA-MB-435 = system: MDA-MB-435
NCI-H460 lung = system: NCI-H460 lung
SK-MEL-5 melanoma = system: SK-MEL-5 melanoma
T-47D breast = system: T-47D breast
SR leukemia = system: SR leukemia

Row | Compound | TGI (786-0 renal) [µM] | TGI (KM12 colon) [µM] | TGI (MDA-MB-435) [µM] | TGI (NCI-H460 lung) [µM] | TGI (SK-MEL-5 melanoma) [µM] | TGI (T-47D breast) [µM] | TGI (SR leukemia) [µM]
1 | COc1ccc(/C=N\NC(=O)Nc2cccc3ccccc23)cc1 | 46.6 | > 100 | > 100 | 40.2 | > 100 | 38.2 | –
2 | O=C(CCc1ccc(O)c(O)c1)NCCc1ccc(O)c(O)c1 | 33.8 | > 100 | 31.8 | > 100 | > 100 | > 100 | 74.1
3 | COc1nc2ccc(CNc3ccc(C(=O)O)cc3)cc2nc1OC | > 10 | > 10 | > 10 | > 10 | > 10 | > 10 | –
4 | NC(=O)CCC(NC(=O)c1cccc2c(=O)c3ccccc3[nH]c12)C(=O)O (stereo unspecified) | > 100 | > 100 | > 100 | – | > 100 | – | > 100
5 | COc1ccc2oc(=Nc3ccc(F)cc3)c(C(N)=O)cc2c1 | 40.4 | > 100 | > 100 | > 100 | > 100 | 94.8 | > 100
6 | O=c1oc2c/c(=C\c3ccccc3)c(=O)c3cccc1c3-2 | 53.9 | 56.3 | 51.7 | > 100 | – | 55.5 | > 100
7 | Cn1c(N=[N+]=[N-])cc(=O)n(C)c1=O | > 100 | > 100 | > 100 | > 100 | > 100 | > 100 | > 100
8 | Clc1cc(OCC23CC4CC(CC(C4)C2)C3)nc(OCC23CC4CC(CC(C4)C2)C3)n1 | > 100 | > 100 | > 100 | > 100 | > 100 | > 100 | > 100
9 | CN(C)CCNC(=O)c1cccc2[nH]c(-c3ccncc3)nc12 | 4.15 | > 35.7 | 3.63 | 8.22 | 7.27 | > 86.1 | > 100
10 | COc1ccc(-c2nnc(CCCCCCCCc3nnc(-c4ccc(OC)cc4)n3N)n2N)cc1 | > 31.6 | > 100 | > 100 | > 100 | > 100 | > 100 | > 100
11 | CC(NC(=O)C(Cc1cnc[nH]1)NC(=O)C1CCC(=O)N1)C(N)=O (stereo not drawn) ([pGlu]-His-Ala-NH2; configuration not given here) | > 100 | > 100 | > 100 | > 100 | > 100 | > 100 | > 100
12 | COC(=O)C(Cc1ccccc1)NC(=O)c1ccc(CNC(=S)NCc2cccc(CNC(=S)NCc3ccccc3)c2)cc1 (stereo unspecified) | > 62.5 | > 62.5 | > 62.5 | > 62.5 | > 62.5 | > 62.5 | > 62.5
13 | CNc1ncnc2c1nnn2C | > 100 | > 100 | > 100 | – | > 100 | > 100 | –
14 | CCCCCC(O)(CCCCC)CCCCCCCCC1=C(O)c2ccccc2C(=O)C1=O | 30.5 | 19.4 | > 62.4 | 17.7 | 14.5 | 75.2 | 13.9
